Assays:
Test in all cases: kinome scan
Type in all cases: binding
AMPK-alpha1 = target: T1, AMPK-alpha1 (Homo sapiens, UniProt Q13131); settings: 10 µM
T1 construct: purchased DiscoverX (KINOMEscan)

AMPK-alpha2 = target: T2, AMPK-alpha2 (Homo sapiens, UniProt P54646); settings: 10 µM
T2 construct: purchased DiscoverX (KINOMEscan)

CASK = target: T3, CASK (Homo sapiens, UniProt O14936); settings: 10 µM
T3 construct: purchased DiscoverX (KINOMEscan)

CSK = target: T4, CSK (Homo sapiens, UniProt P41240); settings: 10 µM
T4 construct: purchased DiscoverX (KINOMEscan)

CSNK1G2 = target: T5, CSNK1G2 (Homo sapiens, UniProt P78368); settings: 10 µM
T5 construct: purchased DiscoverX (KINOMEscan)

CSNK2A1 = target: T6, CSNK2A1 (Homo sapiens, UniProt P68400); settings: 10 µM
T6 construct: purchased DiscoverX (KINOMEscan)

ERBB3 = target: T7, ERBB3 (Homo sapiens, UniProt P21860); settings: 10 µM
T7 construct: purchased DiscoverX (KINOMEscan)

ERBB4 = target: T8, ERBB4 (Homo sapiens, UniProt Q15303); settings: 10 µM
T8 construct: purchased DiscoverX (KINOMEscan)

FYN = target: T9, FYN (Homo sapiens, UniProt P06241); settings: 10 µM
T9 construct: purchased DiscoverX (KINOMEscan)

HIPK4 = target: T10, HIPK4 (Homo sapiens, UniProt Q8NE63); settings: 10 µM
T10 construct: purchased DiscoverX (KINOMEscan)

IKK-epsilon = target: T11, IKK-epsilon (Homo sapiens, UniProt Q14164); settings: 10 µM
T11 construct: purchased DiscoverX (KINOMEscan)

[1] = target: T12, JAK1(JH1domain-catalytic) (Homo sapiens, UniProt P23458); settings: 10 µM
T12 construct: JAK1(JH1domain-catalytic); purchased DiscoverX (KINOMEscan)

[2] = target: T13, JAK2(JH1domain-catalytic) (Homo sapiens, UniProt O60674); settings: 10 µM
T13 construct: JAK2(JH1domain-catalytic); purchased DiscoverX (KINOMEscan)

KIT = target: T14, KIT (Homo sapiens, UniProt P10721)
T14 construct: purchased DiscoverX (KINOMEscan)

MUSK = target: T15, MUSK (Homo sapiens, UniProt O15146); settings: 10 µM
T15 construct: purchased DiscoverX (KINOMEscan)

NEK6 = target: T16, NEK6 (Homo sapiens, UniProt Q9HC98); settings: 10 µM
T16 construct: purchased DiscoverX (KINOMEscan)

PCTK1 = target: T17, PCTK1 (Homo sapiens, UniProt Q00536); settings: 10 µM
T17 construct: purchased DiscoverX (KINOMEscan)

PCTK2 = target: T18, PCTK2 (Homo sapiens, UniProt Q00537); settings: 10 µM
T18 construct: purchased DiscoverX (KINOMEscan)

PIK3CA = target: T19, PIK3CA (Homo sapiens, UniProt P42336); settings: 10 µM
T19 construct: purchased DiscoverX (KINOMEscan)

PIM2 = target: T20, PIM2 (Homo sapiens, UniProt Q9P1W9); settings: 10 µM
T20 construct: purchased DiscoverX (KINOMEscan)

PRKCD = target: T21, PRKCD (Homo sapiens, UniProt Q05655); settings: 10 µM
T21 construct: purchased DiscoverX (KINOMEscan)

PRKG2 = target: T22, PRKG2 (Homo sapiens, UniProt Q13237); settings: 10 µM
T22 construct: purchased DiscoverX (KINOMEscan)

RET(V804L) = target: T23, RET(V804L) (Homo sapiens, UniProt P07949, V804L); settings: 10 µM
T23 construct: purchased DiscoverX (KINOMEscan)

[3] = target: T24, RPS6KA4(Kin.Dom.2-C-terminal) (Homo sapiens, UniProt O75676); settings: 10 µM
T24 construct: RPS6KA4(Kin.Dom.2-C-terminal); purchased DiscoverX (KINOMEscan)

[4] = target: T25, RSK2(Kin.Dom.1-N-terminal) (Homo sapiens, UniProt P51812); settings: 10 µM
T25 construct: RSK2(Kin.Dom.1-N-terminal); purchased DiscoverX (KINOMEscan)

SgK110 = target: T26, SgK110 (Homo sapiens, UniProt P0C264); settings: 10 µM
T26 construct: purchased DiscoverX (KINOMEscan)

TNIK = target: T27, TNIK (Homo sapiens, UniProt Q9UKE5); settings: 10 µM
T27 construct: purchased DiscoverX (KINOMEscan)

[5] = target: T28, TYK2(JH2domain-pseudokinase) (Homo sapiens, UniProt P29597)
T28 construct: TYK2(JH2domain-pseudokinase); purchased DiscoverX (KINOMEscan)

YANK2 = target: T29, YANK2 (Homo sapiens, UniProt Q9NY57); settings: 10 µM
T29 construct: purchased DiscoverX (KINOMEscan)

T14 sequence (P10721 26-976): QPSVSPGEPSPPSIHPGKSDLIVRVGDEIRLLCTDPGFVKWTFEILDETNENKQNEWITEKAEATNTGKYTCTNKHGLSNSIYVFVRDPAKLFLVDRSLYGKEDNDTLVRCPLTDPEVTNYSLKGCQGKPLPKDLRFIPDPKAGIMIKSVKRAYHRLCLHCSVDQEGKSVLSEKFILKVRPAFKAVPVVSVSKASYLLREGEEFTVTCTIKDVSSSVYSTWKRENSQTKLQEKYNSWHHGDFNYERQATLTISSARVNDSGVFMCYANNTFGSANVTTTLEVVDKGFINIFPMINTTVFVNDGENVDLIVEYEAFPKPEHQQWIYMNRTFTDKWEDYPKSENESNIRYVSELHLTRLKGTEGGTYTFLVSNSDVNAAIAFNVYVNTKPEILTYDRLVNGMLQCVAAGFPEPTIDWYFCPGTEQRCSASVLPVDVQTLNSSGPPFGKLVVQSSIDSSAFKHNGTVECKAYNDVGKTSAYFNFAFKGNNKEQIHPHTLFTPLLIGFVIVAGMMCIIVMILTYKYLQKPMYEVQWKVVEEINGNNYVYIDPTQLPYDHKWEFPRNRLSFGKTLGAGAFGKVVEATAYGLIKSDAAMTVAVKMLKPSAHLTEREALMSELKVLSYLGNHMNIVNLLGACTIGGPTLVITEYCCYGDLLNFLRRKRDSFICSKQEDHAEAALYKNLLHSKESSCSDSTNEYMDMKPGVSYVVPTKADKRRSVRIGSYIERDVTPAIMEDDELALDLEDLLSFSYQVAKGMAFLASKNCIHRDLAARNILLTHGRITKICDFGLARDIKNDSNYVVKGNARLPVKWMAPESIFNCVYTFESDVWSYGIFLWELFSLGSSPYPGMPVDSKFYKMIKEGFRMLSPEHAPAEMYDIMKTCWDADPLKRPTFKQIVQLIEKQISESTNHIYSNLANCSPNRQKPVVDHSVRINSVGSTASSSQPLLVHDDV
T28 sequence (P29597 556-888 limits assumed): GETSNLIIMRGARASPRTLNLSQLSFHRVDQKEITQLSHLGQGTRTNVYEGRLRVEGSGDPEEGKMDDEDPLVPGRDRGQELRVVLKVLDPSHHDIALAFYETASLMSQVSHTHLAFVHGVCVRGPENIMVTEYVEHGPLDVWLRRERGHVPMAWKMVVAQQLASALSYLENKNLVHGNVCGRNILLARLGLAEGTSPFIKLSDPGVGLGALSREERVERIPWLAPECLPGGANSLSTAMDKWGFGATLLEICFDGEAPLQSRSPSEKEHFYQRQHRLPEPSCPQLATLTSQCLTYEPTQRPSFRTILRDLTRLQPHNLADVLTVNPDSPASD
T3 sequence (O14936 whole entry): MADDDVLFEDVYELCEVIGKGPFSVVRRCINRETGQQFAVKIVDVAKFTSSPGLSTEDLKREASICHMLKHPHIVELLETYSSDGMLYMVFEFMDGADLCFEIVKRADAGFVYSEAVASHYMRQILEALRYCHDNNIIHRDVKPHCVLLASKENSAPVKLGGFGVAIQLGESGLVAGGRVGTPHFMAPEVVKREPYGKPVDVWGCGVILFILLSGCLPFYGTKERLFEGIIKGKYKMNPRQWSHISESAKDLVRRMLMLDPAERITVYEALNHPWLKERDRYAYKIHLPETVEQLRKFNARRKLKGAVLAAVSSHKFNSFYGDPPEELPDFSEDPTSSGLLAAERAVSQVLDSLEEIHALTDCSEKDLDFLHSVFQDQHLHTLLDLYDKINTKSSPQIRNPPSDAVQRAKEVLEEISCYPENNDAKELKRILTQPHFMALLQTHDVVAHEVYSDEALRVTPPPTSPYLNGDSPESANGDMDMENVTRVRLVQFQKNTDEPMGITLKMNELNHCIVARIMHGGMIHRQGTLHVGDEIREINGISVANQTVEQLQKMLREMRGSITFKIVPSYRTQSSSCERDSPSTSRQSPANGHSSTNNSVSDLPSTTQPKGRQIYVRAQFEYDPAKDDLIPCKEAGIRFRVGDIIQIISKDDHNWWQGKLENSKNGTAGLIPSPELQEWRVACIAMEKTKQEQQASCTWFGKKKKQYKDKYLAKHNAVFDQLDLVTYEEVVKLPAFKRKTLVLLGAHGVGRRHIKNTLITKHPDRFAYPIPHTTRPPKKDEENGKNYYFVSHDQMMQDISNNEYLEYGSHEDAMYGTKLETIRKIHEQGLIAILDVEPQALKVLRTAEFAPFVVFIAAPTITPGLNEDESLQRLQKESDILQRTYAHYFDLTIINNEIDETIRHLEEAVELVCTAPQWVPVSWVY
T6 sequence (P68400 whole entry): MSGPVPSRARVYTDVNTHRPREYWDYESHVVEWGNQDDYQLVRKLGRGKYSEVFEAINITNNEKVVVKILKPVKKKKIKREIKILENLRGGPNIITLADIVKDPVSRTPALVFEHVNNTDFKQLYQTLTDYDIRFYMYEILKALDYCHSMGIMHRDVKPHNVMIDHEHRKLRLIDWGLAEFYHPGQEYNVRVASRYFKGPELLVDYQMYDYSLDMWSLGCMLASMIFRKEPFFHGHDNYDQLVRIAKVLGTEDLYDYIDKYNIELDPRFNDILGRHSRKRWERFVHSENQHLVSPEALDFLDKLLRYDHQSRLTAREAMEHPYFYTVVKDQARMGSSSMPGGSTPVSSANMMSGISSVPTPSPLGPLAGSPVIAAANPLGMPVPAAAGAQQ
T12 sequence (P23458 854-1154 limits assumed): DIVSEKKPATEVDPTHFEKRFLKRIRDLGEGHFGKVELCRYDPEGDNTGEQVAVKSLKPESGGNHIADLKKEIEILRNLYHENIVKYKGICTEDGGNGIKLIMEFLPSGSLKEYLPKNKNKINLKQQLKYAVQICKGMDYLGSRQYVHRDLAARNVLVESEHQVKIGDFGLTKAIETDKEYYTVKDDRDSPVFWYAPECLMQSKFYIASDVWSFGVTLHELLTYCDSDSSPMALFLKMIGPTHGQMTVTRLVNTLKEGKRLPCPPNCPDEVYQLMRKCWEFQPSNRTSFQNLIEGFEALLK
T2 sequence (P54646 whole entry): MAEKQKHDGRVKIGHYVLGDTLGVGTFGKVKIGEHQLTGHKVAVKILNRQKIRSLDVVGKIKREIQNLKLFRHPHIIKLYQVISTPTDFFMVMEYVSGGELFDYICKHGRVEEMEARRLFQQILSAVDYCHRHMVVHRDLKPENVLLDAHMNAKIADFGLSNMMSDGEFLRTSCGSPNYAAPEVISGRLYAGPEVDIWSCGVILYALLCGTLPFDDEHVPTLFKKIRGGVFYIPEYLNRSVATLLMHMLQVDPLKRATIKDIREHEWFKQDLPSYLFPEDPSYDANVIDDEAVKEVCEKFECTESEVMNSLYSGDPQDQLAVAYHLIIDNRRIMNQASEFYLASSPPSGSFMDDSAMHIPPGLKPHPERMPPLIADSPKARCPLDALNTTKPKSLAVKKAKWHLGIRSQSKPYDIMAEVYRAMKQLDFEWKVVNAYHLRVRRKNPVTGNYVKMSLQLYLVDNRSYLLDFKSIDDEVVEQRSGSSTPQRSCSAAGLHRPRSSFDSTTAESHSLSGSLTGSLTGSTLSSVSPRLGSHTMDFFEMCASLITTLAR
T16 sequence (Q9HC98 whole entry): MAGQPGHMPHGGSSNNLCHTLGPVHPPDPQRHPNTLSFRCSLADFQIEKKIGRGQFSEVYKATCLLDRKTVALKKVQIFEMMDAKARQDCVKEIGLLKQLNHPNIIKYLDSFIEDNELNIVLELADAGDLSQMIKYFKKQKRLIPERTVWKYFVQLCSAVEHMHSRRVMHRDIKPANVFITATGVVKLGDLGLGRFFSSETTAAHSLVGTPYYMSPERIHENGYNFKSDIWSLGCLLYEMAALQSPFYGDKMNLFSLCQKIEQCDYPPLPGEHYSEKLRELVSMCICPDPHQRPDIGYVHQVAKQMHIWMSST
T9 sequence (P06241 whole entry): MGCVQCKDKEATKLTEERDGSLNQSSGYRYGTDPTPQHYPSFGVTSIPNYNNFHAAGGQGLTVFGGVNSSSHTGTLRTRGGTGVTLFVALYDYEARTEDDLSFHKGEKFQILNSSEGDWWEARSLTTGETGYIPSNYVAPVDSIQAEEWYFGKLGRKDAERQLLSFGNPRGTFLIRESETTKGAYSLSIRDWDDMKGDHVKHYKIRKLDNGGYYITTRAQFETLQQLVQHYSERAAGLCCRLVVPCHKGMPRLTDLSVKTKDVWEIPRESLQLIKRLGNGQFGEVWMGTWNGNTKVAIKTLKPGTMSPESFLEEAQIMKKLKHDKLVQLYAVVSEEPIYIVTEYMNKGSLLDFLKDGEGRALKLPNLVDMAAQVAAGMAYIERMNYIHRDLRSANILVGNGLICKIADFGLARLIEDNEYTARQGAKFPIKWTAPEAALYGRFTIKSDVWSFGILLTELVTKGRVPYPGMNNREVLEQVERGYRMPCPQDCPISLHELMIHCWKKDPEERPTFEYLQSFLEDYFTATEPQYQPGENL
T1 sequence (Q13131 whole entry): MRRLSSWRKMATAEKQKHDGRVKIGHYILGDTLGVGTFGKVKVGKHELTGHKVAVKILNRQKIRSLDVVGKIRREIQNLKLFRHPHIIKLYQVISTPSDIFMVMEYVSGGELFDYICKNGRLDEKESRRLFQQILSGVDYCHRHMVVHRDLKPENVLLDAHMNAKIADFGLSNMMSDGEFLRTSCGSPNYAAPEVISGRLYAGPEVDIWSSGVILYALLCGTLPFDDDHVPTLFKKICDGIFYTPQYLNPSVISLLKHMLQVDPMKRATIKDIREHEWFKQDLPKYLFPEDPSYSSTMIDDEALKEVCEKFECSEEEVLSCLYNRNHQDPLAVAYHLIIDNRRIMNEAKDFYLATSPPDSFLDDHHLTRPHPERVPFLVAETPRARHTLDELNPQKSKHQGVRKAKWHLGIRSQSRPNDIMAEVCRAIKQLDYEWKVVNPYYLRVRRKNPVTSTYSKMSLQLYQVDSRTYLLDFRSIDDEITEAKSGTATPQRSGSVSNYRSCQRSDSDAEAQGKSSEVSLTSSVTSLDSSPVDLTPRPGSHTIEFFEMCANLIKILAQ

Nc1ccc(N=Nc2ccccc2)c(N)n1 [phenazopyridine, 2,6-diamino-3-(phenylazo)pyridine]
kinase inhibition (AMPK-alpha1): 99
kinase inhibition (AMPK-alpha2): 84
kinase inhibition (CASK): 99
kinase inhibition (CSK): 100
kinase inhibition (CSNK1G2): 82
kinase inhibition (CSNK2A1): 86
kinase inhibition (ERBB3): 91
kinase inhibition (ERBB4): 78
remaining binding (% of control) (FYN): 100
kinase inhibition (HIPK4): 72
kinase inhibition (IKK-epsilon): 72
kinase inhibition [1]: 97
kinase inhibition [2]: 82
percent of control binding remaining (KIT; KIT, 10 µM): 41
remaining binding at 10 µM (KIT; c-KIT wt, read-out: Kinome scan (% of control at 10 µM)): 41%
kinase inhibition (MUSK): 91
kinase inhibition (NEK6): 100
kinase inhibition (PCTK1): 98
kinase inhibition (PCTK2): 98
kinase inhibition (PIK3CA): 84
kinase inhibition (PIM2): 100
kinase inhibition (PRKCD): 100
kinase inhibition (PRKG2): 81
kinase inhibition (RET(V804L)): 100
kinase inhibition [3]: 90
kinase inhibition [4]: 100
kinase inhibition (SgK110): 100
kinase inhibition (TNIK): 75
remaining binding (% of control) ([5]; TYK2(JH2domain-pseudokinase), 10 µM): 16
remaining binding at 10 µM ([5]; TYK2 as printed (Table S4: JH2domain-pseudokinase), read-out: % Of control): 16%
kinase inhibition (YANK2): 90
